Source: patent US12018327B2, “Methods and compositions relating to epoxide hydrolase genes” (The Regents of the University of California, priority 2018, dated 2024)

How the values were obtained:
human DCs = experiment: IL-10 secretion from human DCs, cytometric bead array; assay type: cell-based
Experimental: IL-10 secretion was measured using a cytometric bead array (BD Biosciences, San Jose, CA). Human DCs were isolated from the peripheral blood mononuclear cells (PBMCs) of two healthy human donors as previously described and treated with increasing concentrations of 12,13 DiHOME (Cayman Chemical, Ann Arbor, MI) solubilized in 0.2% dimethylsulfoxide (DMSO). […] IL-10 concentrations were determined according to the manufacturer's instructions.

[1] = biological target: transient receptor potential vanilloid 1 (TRPV1) (Homo sapiens, UniProt Q8NER1); conditions: ref [15]; cited from earlier work
CRA-challenged mice = experiment: Cockroach antigen (CRA) airway sensitization and challenge model; assay type: in vivo; conditions: for frequency of lung resident alveolar macrophages (CD11c+CD11b+F4/80+Siglec-F+): compared to vehicle treated
Experimental: Six-week-old female C57B6 mice were obtained from Jackson Laboratories (Sacramento, CA). Mice were treated on days 1, 2, 3, 14, and 21 with 30 mg kg^−1 12,13 DiHOME solubilized in 10% DMSO or vehicle (10% DMSO) by peritoneal injection. Three hours after injection, mice were challenged intra-tracheally with either PBS or CRA (20,000 PNU mL^−1; Greer, Lenoir, NC). Twenty-four hours after the final challenge mice were anesthetized, injected retro-orbitally with 100 μL CD45-APC (1:10), allowed to recover from anesthesia, and subsequently sacrificed. Lungs and plasma were collected. Serum was isolated, and serum IgE levels were measured using a Mouse IgE ELISA Max kit (Biolegend, San Diego, CA).
Lungs were sent to the Mouse Pathology Core at UCSF for H&E staining of paraffin-embedded tissue sections. Two bronchioles and two vessels from each stained tissue section were scored on a 0-4 scale with 0, representing structures with no inflammatory infiltrates; 1, representing few inflammatory cells; 2, representing a ring 1 cell-layer wide; 3, representing a ring 2-4 cells wide; and 4, representing a ring of inflammatory cells more than 4 cells wide. Each structure was scored by two blinded-individuals, and scores were averaged for each animal. Cell counts were determined for each structure. In brief, the ImageJ freehand selection tool was used to trace the perimeter of each bronchiole and vessel. The area extending beyond the perimeter of the vessel was cleared, and the color threshold of the image was adjusted using the default method with the following parameters: hue=0-255, saturation=0-255, brightness=130-255, threshold color=white, background=dark, color space=HSB. The image was converted to an 8-bit grey scale, and the threshold was adjusted using the B&W defaults and a range of 0-150. Counts were outlined and summarized using the analyze particles window (size=0-infinity, circularity=0.0-1.00).
Lung cell subsets were assessed by flow cytometry. Lung tissue was manually dissected, digested with 5 mg per sample collagenase (Sigma-Aldrich, St. Louis, MO), and passed through a […] filter to generate single cell suspensions. […] Gating strategy can be found in FIG. 5C. Regulatory T cells were identified as CD3+CD4+CD25+FoxP3+ cells. The human T cell gating strategy was also applied to mouse lungs. A representative flow plot can be found in FIG. 5D.
Lung tissue was preserved in RNAlater (Ambion, Foster City, CA). Preserved lung tissue was homogenized in Lysing Matrix E Tubes using a FastPrep 24 Homogenizer (MP Biomedicals, Santa Ana, CA) and extracted using an RNAeasy Mini Kit (Qiagen, Germantown, MD). qPCR was performed on lung tissue, as described above, to evaluate expression of IL1α, IL1β, and TNF relative to GAPDH.

[2] = test system: human DCs (CD3-CD19-CD11c+); experiment: Human DC maturation by flow cytometry (PPARγ-regulated proteins); assay type: cell-based
Experimental: Human DC maturation was assessed by flow cytometry. PBMCs were isolated from two healthy human donors using Ficoll-Hypaque gradient centrifugation as previously described and cultured for five days in the presence of 20 ng mL^−1 IL-4 and 10 ng mL^−1 GM-CSF. Monocytic DCs (DCs) were defined as CD3-CD19-CD11c+. The DC gating strategy can be found in FIG. 4E.

[3] = Quantification of 12,13 DiHOME in lungs and plasma by LC-MS after peritoneal injection; assay type: in vivo, mice; conditions: 30 mg kg^−1 peritoneal, vs vehicle
Experimental: For quantification of 12,13 DiHOME in the lungs and plasma, six-week-old female C57B6 mice were purchased from Jackson Laboratories (Sacramento, CA) and treated with 30 mg kg^−1 12,13 DiHOME solubilized in 10% DMSO or vehicle (10% DMSO) by peritoneal injection. Three hours after a single injection mice were sacrificed, and lung tissue and plasma were collected and frozen immediately in liquid nitrogen. 12,13 DiHOME was extracted from tissue and plasma using an established solid phase extraction protocol. In brief, flash frozen tissue was massed and added to a Lysing Matrix E Tube (MP Biomedicals, Santa Ana, CA) containing 1 mL of methanol, 10 μL 0.2 mg mL^−1 BHT/EDTA, and 1.25 ng 12,13 DiHOME-D4 (Cayman Chemical, Ann Arbor, MI) then homogenized as described above. Tissue samples were spun for 10 minutes at 2125×g, and supernatant was transferred to a falcon tube containing 19 mL deionized water to generate a 5% methanol solution. Plasma samples were thawed on ice, and 10 μL 0.2 mg mL^−1 BHT/EDTA and 1.25 ng 12,13 DiHOME-D4 were added to 250 μL of thawed plasma. All samples were extracted using a Waters Oasis HLB Cartridges (60 mg of sorbent, […] particle size; Waters, Milford, MA) as previously described. […]

[4] = 30 mg kg^−1 peritoneal, CRA-challenged, vs vehicle treated PBS or CRA challenged
[5] = CRA challenged, vs vehicle treated PBS or CRA challenged
[6] = CRA-challenged, vs vehicle treated PBS or CRA challenged
[7] = H&E lung sections, 0-4 scale, vs vehicle treated PBS or CRA challenged

transient receptor potential vanilloid 1 (TRPV1), sequence (Q8NER1 whole entry, species assumed): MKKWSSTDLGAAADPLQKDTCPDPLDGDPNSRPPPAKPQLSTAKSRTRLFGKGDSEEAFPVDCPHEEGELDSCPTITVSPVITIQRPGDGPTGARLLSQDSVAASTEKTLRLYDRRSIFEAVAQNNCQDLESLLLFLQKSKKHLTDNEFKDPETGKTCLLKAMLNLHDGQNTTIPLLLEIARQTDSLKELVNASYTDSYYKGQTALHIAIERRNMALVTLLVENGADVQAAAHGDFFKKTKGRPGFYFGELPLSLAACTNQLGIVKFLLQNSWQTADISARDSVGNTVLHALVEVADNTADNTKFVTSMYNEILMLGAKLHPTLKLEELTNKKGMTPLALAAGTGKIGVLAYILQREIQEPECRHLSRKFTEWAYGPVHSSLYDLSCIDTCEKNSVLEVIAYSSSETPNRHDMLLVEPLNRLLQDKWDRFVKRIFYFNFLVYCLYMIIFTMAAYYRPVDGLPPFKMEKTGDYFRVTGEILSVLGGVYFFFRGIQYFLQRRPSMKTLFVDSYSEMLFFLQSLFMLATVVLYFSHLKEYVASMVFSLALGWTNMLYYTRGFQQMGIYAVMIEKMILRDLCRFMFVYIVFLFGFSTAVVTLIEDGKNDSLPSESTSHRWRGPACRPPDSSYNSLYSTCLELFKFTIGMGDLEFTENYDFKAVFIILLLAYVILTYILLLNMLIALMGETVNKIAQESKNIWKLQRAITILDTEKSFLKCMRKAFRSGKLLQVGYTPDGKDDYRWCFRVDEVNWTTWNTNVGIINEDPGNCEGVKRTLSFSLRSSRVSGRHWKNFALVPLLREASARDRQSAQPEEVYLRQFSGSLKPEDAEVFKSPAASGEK

## CCCCCC(O)C(O)C/C=C\CCCCCCCC(=O)O (stereo not drawn) [12,13 DiHOME]
Human DCs; 130 μM, 24 hr
  IL-10 secretion 24 hours after treatment: significant decreases
Human DCs; 130 μM, 48 hr
  IL-10 secretion 48 hours after treatment: significant decreases
Human DCs; 75, 130, 200 μM, supernatant after 24 hours
  IL-10 secretion from human DCs: dose-dependent decrease
[1]
  action on TRPV1: activator
CRA-challenged mice; [4]
  expression of IL1β in lung: increased
  frequency of lung resident T cells (CD3+): increased
  number of infiltrating cells surrounding the bronchioles: increased
  number of infiltrating cells surrounding the veins: increased
CRA-challenged mice; 30 mg kg^−1 peritoneal, CRA-challenged, vs vehicle-treated CRA-challenged
  lung Treg frequency: decreased
CRA-challenged mice; 30 mg kg^−1 peritoneal, vs CRA-challenged and PBS-challenged animals
  serum IgE: increased
CRA-challenged mice; [5]
  expression of IL1α in lung: increased
  expression of TNF in lung: increased
CRA-challenged mice; [6]
  frequency of live resident cells in the lungs: did not increase
  frequency of lung resident monocytes (F4-80+Ly6C+Ly6G-CD11b+): significantly increased
  frequency of lung resident neutrophils (Ly6G+CD11b+): significantly increased
  frequency of resident lung cells: decreased
CRA-challenged mice; [7]
  peribronchial inflammation score: increased
  perivascular inflammation score: increased
CRA-challenged mice; CRA challenged animals
  frequency of lung resident alveolar macrophages (CD11c+CD11b+F4/80+Siglec-F+): decreased
CRA-challenged mice; PBS challenged animals
  frequency of lung resident alveolar macrophages (CD11c+CD11b+F4/80+Siglec-F+): increased
[2]; high concentrations (200 μM)
  expression of CD36 on DCs: increase
[2]; human DCs, flow cytometry
  cell viability: did not alter
[2]; increasing doses
  expression of CCR7 on DCs: significant decrease
  expression of CD1a on DCs: significant decrease
  expression of CD80 on DCs: significant decrease
[3]; 3 hours post-delivery
  concentration of 12,13 DiHOME in the lungs: significantly increased
[3]; three hours after injection
  concentration of 12,13 DiHOME in the plasma: significantly increased
